Data as given in patent US20050239051A1, “Use of isogenic human cancer cells for high-throughput screening and drug discovery” (The Johns Hopkins University, priority 2001, published 2005).

Legend:
mutant-RAS cell line = experiment: Growth inhibition assay with parental non-GFP cell lines plated separately, PicoGreen (FIG. 6); type: cell-based, human; details: range of concentrations, five days
Description: FIG. 6. Structure/activity ratios (SAR's) of compounds with structural homology to TPT. Growth inhibition assays were performed using parental (non-GFP modified) cell lines. Cells were plated separately at low density in 96 well plates and exposed to a range of test drug concentrations for five days. Cells were then lysed in H2O, and lysates assayed for relative cell number using the dsDNA-binding dye (PicoGreen).
Secondary screens on primary screen hits were performed as above except that a drug concentration range was used, typically extending from 30 ng/ml to 4 μg/ml. […] Assays using non-GFP modified cell lines were performed using cells plated separately rather than co-cultured. Plates were harvested each day for assessment of cell number using either an MTT assay or using the DNA-binding dye PicoGreen (Molecular Probes, Eugene, Oreg.). MTT assays were performed according to the manufacturers instructions (Trevigen, Gaithersburg, Md.). PicoGreen assays were performed by lysing cells in 96-well plates in 200 μl H2O, triturating and then transferring a 10 μl aliquot from each well to […] of PigoGreen solution (# P-7581) diluted to 0.5% vol/vol in Tris-EDTA (TE) buffer.

c-Jun kinases = experiment: In vitro kinase assay, c-Jun kinases; type: biochemical; details: in vitro kinase assays (data not shown)
Description: (§1) No anti-proliferative activity has previously been described for TPT. Tetrazole compounds such as TPT are commonly used as histological reagents that are reduced by cellular dehydrogenases in viable cells to a coloured formazan dye (Adegboyega et al., Arch. Pathol. Lab. Med., 121:1063-68, 1997, Otero et al., Cytotechnology, 6:137-42, 1991). However, no obvious staining of cells was observed using TPT at the concentrations used in the present assays. […] A previously identified inhibitor of p38 mitogen activated kinase (SB203580) (Cuenda et al., FEBS Lett., 364:229-33, 1995, Liverton et al., J. Med. Chem., 42:2180-90, 1999) was also noted to be structurally similar to TPT (FIG. 6). […] It is therefore unclear whether kinases represent cellular targets for TPT.

c-Raf-1 = c-Raf-1 (Homo sapiens, UniProt P04049); experiment: In vitro kinase assay, c-Raf-1; type: biochemical; details: in vitro kinase assays (data not shown)
Description: as §1

[1] = system: DLD-1 cells (mutant c-Ki-Ras); experiment: Co-culture fluorescence growth inhibition screen, DLD-1 cells (BFP); type: cell-based, human
Description: (§2) FIG. 1. Schematic of drug screening format using co-cultured isogenic cells modified with spectrally distinct green fluorescent protein (GFP) variants. DLD-1 cells, harbouring a mutant c-Ki-RAS allele plus a wild-type (wt) c-Ki-RAS allele, were modified to stably express a GFP variant that is excited at 530 nm (YFP). An isogenic clone (KO) in which only the mutant c-Ki-RAS allele has been deleted (Adegboyega et al., Arch. Pathol. Lab. Med., 121:1063-68, 1997) was modified to express a GFP variant that is excited at 390 nm (BFP). These cells were mixed and plated at low density in 96-well plates. […] Plates were assayed every day for six days using a fluorescence plate reader to obtain growth curves for each cell line in every well of the plate.
(§3) FIG. 5. […] Growth curves were obtained from fluorescence at 390ex/508em (DLD-1) and 530ex/590em (KO). […]
(§4) Fluorescent cell lines were harvested by trypsinization and resuspended together as a mixture containing 22,000 cells/ml (DLD-1) and 18,000 cells/ml (KO) in DMEM media supplemented with 10% FCS (HyClone, Logan, Utah). […] Each well of column 1 contained […] of the growth medium without cells as a control for computing background fluorescence. […] Fluorometry data from each day's read were exported to a custom program (Drugmobile) for plotting the growth curves of each cell line in each well of the 96-well plate. […]

[2] = system: KO cells (DKS-8, mutant c-Ki-Ras allele deleted); experiment: Co-culture fluorescence growth inhibition screen, KO cells (YFP); type: cell-based, human; details: concentration and time course experiments, co-cultured cells (FIG. 5)
Description: as §2, §3, §4

p38 = p38 (Homo sapiens, UniProt Q16539); experiment: In vitro kinase assay, p38; type: biochemical; details: in vitro kinase assays (data not shown)
Description: as §1

[3] = system: downstream components of the RAS pathway; details: previously shown (Cardenas 1998; Campbell 1994); cited from earlier work

Sequence of c-Raf-1 (P04049 whole entry): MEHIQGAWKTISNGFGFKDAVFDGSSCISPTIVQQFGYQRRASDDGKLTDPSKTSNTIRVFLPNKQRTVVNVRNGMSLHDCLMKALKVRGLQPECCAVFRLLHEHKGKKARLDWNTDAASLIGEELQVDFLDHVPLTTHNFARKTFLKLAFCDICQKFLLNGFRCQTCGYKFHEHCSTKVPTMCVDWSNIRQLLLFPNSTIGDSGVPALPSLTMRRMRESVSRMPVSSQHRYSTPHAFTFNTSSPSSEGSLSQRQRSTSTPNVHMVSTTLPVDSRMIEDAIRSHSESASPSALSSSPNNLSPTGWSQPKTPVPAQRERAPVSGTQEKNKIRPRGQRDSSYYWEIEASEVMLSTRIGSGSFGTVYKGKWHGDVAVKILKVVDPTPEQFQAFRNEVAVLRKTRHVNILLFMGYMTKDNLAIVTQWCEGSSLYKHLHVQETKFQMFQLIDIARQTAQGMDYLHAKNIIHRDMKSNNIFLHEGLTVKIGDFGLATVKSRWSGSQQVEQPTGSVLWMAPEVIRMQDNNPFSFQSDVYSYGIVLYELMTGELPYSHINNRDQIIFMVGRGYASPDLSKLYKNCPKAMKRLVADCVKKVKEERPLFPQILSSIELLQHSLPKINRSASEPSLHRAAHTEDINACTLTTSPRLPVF
Sequence of p38 (Q16539 whole entry): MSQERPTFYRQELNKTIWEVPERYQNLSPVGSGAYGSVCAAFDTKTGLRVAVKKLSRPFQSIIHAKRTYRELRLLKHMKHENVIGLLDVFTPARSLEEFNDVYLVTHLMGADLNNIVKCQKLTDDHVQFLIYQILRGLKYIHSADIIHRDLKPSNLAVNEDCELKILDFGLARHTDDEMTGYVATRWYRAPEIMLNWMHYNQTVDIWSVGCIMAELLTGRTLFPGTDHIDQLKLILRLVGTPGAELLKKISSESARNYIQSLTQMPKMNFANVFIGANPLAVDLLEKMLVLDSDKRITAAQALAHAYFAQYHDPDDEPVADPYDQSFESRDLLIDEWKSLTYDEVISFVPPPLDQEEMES

Compound: C[S+]([O-])c1ccc(-c2nc(-c3ccncc3)c(-c3ccc(F)cc3)[nH]2)cc1 (centres unmarked) [SB203580]
- selectivity towards the mutant RAS-containing line (mutant-RAS cell line): failed to show selectivity

Compound: c1ccc(-c2nn(-c3ccccc3)[n+](-c3ccccc3)n2)cc1 [TPT, Triphenyltetrazolium]
- inhibition of c-Jun kinases (c-Jun kinases): little or no reproducible inhibition
- inhibition of c-Raf-1 (c-Raf-1): little or no reproducible inhibition
- selectivity for inhibiting the growth of the mutant c-Ki-RAS cell line (DLD-1) ([1]; DLD-1 versus KO): ~6 fold
- IC50 on DLD-1 ([1]; concentration and time course experiments, co-cultured cells (FIG. 5)): ~2 µg/mL
- IC50 on KO [2]: ~12 µg/mL
- inhibition of p38 (p38): little or no reproducible inhibition

Compound: C[C@@]12c3ccc4c(c3C(=O)c3occ(c31)C(=O)C[C@H]2O)CCC4=O [demethoxyviridin]
- inhibition of downstream components of the RAS pathway [3]: inhibit downstream components of the RAS pathway
